In patent US10815219B2, “2,4-diaminoquinazoline derivatives for inhibiting endoplasmic reticulum (ER) stress” (The Board of Regents of the University of Oklahoma, priority 2017, dated 2020):

Experiments:
primary human islets = assay: Glucose-stimulated insulin secretion in Tm-treated primary human islets; type: cell-based; conditions: Tm 1 μg/mL, 48 h, 20 mM glucose, FIG. 9C
Excerpt: We determined whether 9c suppresses the apoptosis of primary human β cells induced by Tm treatment as assessed by TUNEL, which detects fragmentation of DNA, a marker of apoptotic cell death. […] Next, we investigated whether 9c restored the Tm-induced insulin secretion defect. […] ER stress induces activation of three branches of UPR (PERK, IRE1α, and ATF6), leading to up-regulation of ATF4, XBP1s, Bip, […], CHOP and eventual activation caspase 3 and cell apoptosis, while diminishing the expression of PDX1, MAFA and insulin genes, leading to β cell dysfunction. Compound 9c protects β cell against ER stress-mediated dysfunction and death by down-regulating ATF4, XBP1s, Bip, GRP94, CHOP, and caspase 3 and up-regulating PDX1, MAFA and insulin genes.
INS-1 or primary human islet cells were plated in 96-well plates. The second day, Tm and compound 9c were added and maintained for 24 h (INS-1) or 48 h (human islets). […] The secreted insulin was measured with insulin ELISA kits (for mouse insulin from Millipore and for human insulin from LifeTech). Cells were lysed with RIPA buffer (50 mM Tris HCl pH 7.4, 1% NP-40, 0.25% sodium deoxycholate, 150 mM NaCl), and total cellular protein was determined with a Bradford protein assay. […]

INS-1 cells [1] = assay: Live-cell phase-contrast images of Tm-treated INS-1 cells; type: cell-based, rat; conditions: Tm 0.1 μg/mL, 9c 20 μM, 24 h, FIG. 4B
Description: (A) INS-1 cells were treated with or without Tm (0.1 μg/mL) in the presence of 9c (20 μM) or DMSO for the indicated times. Cleaved caspase-3 and PARP were determined by Western blotting. A-Tubulin was used as a loading control. The data shown are representative of 3 independent experiments. (B) INS-1 cells were treated with or without Tm (0.1 μg/mL) in the presence of 9c (20 μM) or DMSO for 24 h, and live-cell phase-contrast images were acquired (magnification 10×).
(§1) To determine whether the increase in cell viability following treatment with 9c was caused by a suppression of apoptotic cell death, levels of cleaved caspase-3 and cleaved PARP were assessed by Western blotting. Caspase-3, a member of executioner caspases, plays essential roles in initiating apoptotic signaling and executing the final stages of cell death as it is responsible for the proteolytic cleavage of many key proteins, such as the nuclear enzyme poly (ADP-ribose) polymerase (PARP) which is a family of proteins involved in a number of cellular processes involving DNA repair and cell death. […] However, upon severe ER stress, caspase 3 undergoes proteolytic cleavage to produce two subunits that dimerize to form the active enzyme, which in turns cleaves PARP.

INS-1 cells [2] = assay: INS-1 cell viability after BFA treatment (CellTiter-Glo); type: cell-based, rat; conditions: BFA 0.2 μg/mL, 9c 20 μM, 72 h, FIG. 3D
Excerpt: (§2) To rule out the possibility of an ATP-specific (rather than viability) effect of the compounds, we used the MTT assay, which measures the activity of NAD(P)H-dependent cellular oxidoreductase enzymes, as an orthogonal method to measure cell viability. […] To confirm that the protective effect of 9c on β cells is not INS-1 cell-specific, another β cell line, βTC6, was used. […] To determine whether the protective effect of 9c on β cells is specific to Tm-induced stress, we used another ER stressor, BFA, which inhibits a key guanine nucleotide exchange factor essential for the transport of proteins from the ER to the Golgi, to treat INS-1 cells.
(§3) INS-1 cells or βTC6 cells were seeded at 3×10^3 cells/well in a 384-well plate and treated with compounds at the indicated concentrations. After 3 d treatment, the medium was aspirated and 20 μL/well of CellTiter-Glo reagent (Promega, WI, USA) was added for the detection of intracellular ATP levels. Cell viability was measured with an EnVision multilabel plate reader (PerkinElmer, MA, USA).

ATF4 and CHOP mRNA = assay: qRT-PCR of ATF4 and CHOP in Tm-treated INS-1 cells; type: cell-based, rat; conditions: Tm 0.1 μg/mL, 9c 20 μM, FIG. 8A, B
Excerpt: We then determined the effect of 9c on the activation of the PERK pathway in β cells under ER stress. Activated PERK phosphorylates eukaryotic translation initiator factor 2a (eIF2α), which in turn attenuates general protein synthesis to relieve ER load. EIF2α phosphorylation also allows the selective translation of ATF4 mRNA, which encodes a transcription factor that induces the expression of the pro-apoptotic gene C/EBP-homologous protein (CHOP). Thus, we used ATF4 and CHOP expression levels as markers of PERK pathway activation. […] Together, our results that 9c inhibited the ER stress-mediated activation of all three UPR pathways indicate that 9c protects β cell survival by alleviating ER stress.
INS-1 cells were seeded at 4×10^5 cells/well in 6-well plates and treated with compounds for the indicated times. Total RNA was extracted using TRIzol reagent (Invitrogen, Carlsbad, Calif.) according to the manufacturer's protocol, and 2 μg of total RNA was reverse transcribed using a Superscript kit (Invitrogen). Real-time PCR was performed in 96-well format using SYBR Select Master Mix (Applied Biosystems, Foster City, Calif.) with an ABI 7500 PCR system (Applied Biosystems). The primer sequences used are shown in U.S. Ser. No. 62/542,408, Aug. 8, […].

[3] = test system: cleaved caspase-3 and PARP; assay: Western blotting of cleaved caspase-3 and cleaved PARP in Tm-treated INS-1 cells; type: cell-based, rat; conditions: Tm 0.1 μg/mL, 9c 20 μM, 24 h, FIG. 4A
Description: as §1
INS-1 cells were seeded in 60-mm dishes at 8×10^5 cells/dish and treated for the indicated times. Cells were then washed with PBS and lysed with lysis buffer (Cell Signaling Technology, Danvers, Mass.) containing EDTA (Thermo, IL) and phosphatase inhibitors (Thermo). Aliquots of 20 μg total protein were separated on 7% SDS-PAGE gels (Life Technologies) and transferred to PVDF membranes (Life Technologies). The membranes were probed with primary antibodies followed by the appropriate HRP-conjugated secondary antibodies (goat anti-rabbit IgG and goat anti-mouse IgG, 1:3000; Santa Cruz Biotechnology, CA, USA). […]

βTC6 cells = assay: βTC6 cell viability after Tm treatment (CellTiter-Glo); type: cell-based; conditions: Tm 0.25 μg/mL, 72 h, FIG. 3B
Excerpt: as §2, §3

Which “glucose-stimulated insulin secretion (GSIS)” value (primary human islets) does the source give for `COc1ccc(CNc2nc(N3CCCCC3CO)nc3ccccc23)cc1` (racemic) [Compound 9c, (1-(4-((4-methoxybenzyl)amino)quinazolin-2-yl)piperidin-2-yl)methanol] here?
The value was “significantly reversed this effect and restored the Tm-impaired GSIS”.

And the “viable cells observed (phase-contrast)” value (INS-1 cells [1])?
Its value is “significantly more viable cells”.

What about the “viability of INS-1 cells against BFA” value (INS-1 cells [2]) of the same compound?
The value was “protected INS-1 cells against BFA”.

And the “ATF4 and CHOP mRNA levels” value (ATF4 and CHOP mRNA)?
The value was “decrease in both their levels”.

What about the “cleaved caspase-3 and cleaved PARP protein levels” value [3] of the same compound?
The value was “significantly reversed Tm-induced cleavage of both caspase-3 and PARP”.

What about the “viability of βTC6 cells (intracellular ATP level)” value (βTC6 cells) of the same compound?
Its value is “rescued the viability of βTC6 cells in a dose-dependent manner”.
